The text below walks through data of ChEMBL document CHEMBL1140081 (J Med Chem, 2008).

For data set [1], the system named is Liver microsomes. The data set can be described thus: Metabolic stability in human liver microsomes. It is filed as ADME, Microsome. (Microsomes from liver hold many membrane-bound enzymes, among them those of drug oxidation.)
A short description of data set [2]: Metabolic stability in iv dosed dog urine assessed as drug recovery. It is filed as ADME, organism-based, Canis lupus familiaris. Particulars: read-out: Drug uptake.
Data set [3] can be described thus: Metabolic stability in iv dosed Sprague-Dawley rat urine assessed as raltegravir-glucuronide recovery. It is filed as ADME, organism-based. Particulars: in vivo.
Data set [4] in a line: Metabolic stability in iv dosed dog urine assessed as raltegravir-glucuronide recovery. It is filed as ADME, organism-based, Canis lupus familiaris. Particulars: in vivo.
Data set [5] can be described thus: Metabolic stability in rhesus monkey liver microsomes. It is filed as ADME, Macaca mulatta, Microsome.
Data set [6] concerns Liver microsomes. The data set can be described thus: Metabolic stability in Sprague-Dawley rat liver microsomes. It is filed as ADME, Microsome.
Data set [7] is described as follows: Metabolic stability in iv dosed Sprague-Dawley rat bile assessed as drug recovery. It is filed as ADME, organism-based. Particulars: read-out: Drug uptake.
Data set [8] is described as follows: Metabolic stability in iv dosed Sprague-Dawley rat bile assessed as raltegravir-glucuronide recovery. It is filed as ADME, organism-based. Particulars: in vivo.
A short description of data set [9]: Metabolic stability in dog liver microsomes. It is filed as ADME, Canis lupus familiaris, Microsome.
Data set [10] is described as follows: Metabolic stability in iv dosed Sprague-Dawley rat urine assessed as drug recovery. It is filed as ADME, organism-based. Particulars: read-out: Drug uptake.
The nature of data set [11]: Metabolic stability in iv dosed dog urine assessed as drug recovery after 0 to 24 hrs. It is filed as ADME, organism-based, Canis lupus familiaris. Particulars: read-out: Drug uptake.
Data set [12] in a line: Metabolic stability in po dosed dog bile. It is filed as ADME, organism-based, Canis lupus familiaris. Particulars: in vivo.
Data set [13] in a line: Metabolic stability in Sprague-Dawley rat bile. It is filed as ADME.

Regarding `Cc1nnc(C(=O)NC(C)(C)c2nc(C(=O)NCc3ccc([19F])cc3)c(O)c(=O)n2C)o1`, the Stability in the data set on Liver microsomes [1] amounted to 13 mL/day/kg; in [5] it was 51.8 mL/day/kg; with Liver microsomes [6] it was 49 mL/day/kg; in data set [9] it was 2.9 mL/day/kg. Besides, the dose excreted in [2] came out at 65%; in data set [7], 10%; in [10] it was 10%; in data set [11], 30%. Moreover, the Drug uptake is given as 90% in data set [3], 35% in data set [4] and 90% in data set [8].

Consider `CN(C)C(=O)C(=O)NC(C)(C)c1nc(C(=O)NCc2ccc([19F])cc2)c(O)c(=O)n1C`, for which the Stability was found to be 12 mL/day/kg in the data set with Liver microsomes [1], 66.2 mL/day/kg in [5], 28.8 mL/day/kg with Liver microsomes [6] and 4.3 mL/day/kg in [9]. The results for the Activity in data set [12] and in [13] were 13% and 5%, respectively.
